Measured values reported in patent US12501868B2, “Haploid induction compounds and methods for use thereof” (WIMI BIOTECHNOLOGY (HAINAN) CO., LTD., priority 2020, dated 2025).
“And” between values parts separate entries of the source, which are not always exact repeats. Identical values can stand only once. Like-named read-outs stand apart in the source and are kept apart here.

Tests used:
[1] = tested on: sperm cells of maize pollen; test: DNA fragmentation in sperm cells of treated maize pollen (single sperm amplified sequencing); conditions: treated pollen vs 40% sucrose control
Description: DNA fragmentation (which is one of the characteristics of haploid) in the treated pollen is detected.
Release sperm cells on the slide and separate a single sperm for amplified sequencing (Sigma WGA4 kit).

maize pollen = test: Relative ROS level in maize pollen (ROS detection kit, fluorometry); type: cell-based
Description: The red channel or bright channel of the photo was analyzed, and the ROS level was represented by the light intensity of the wavelength with the largest proportion. The relative ROS level in a reproductive tissue refers to a ratio of the ROS level of the reproductive tissue to the ROS level in the control group (40% sucrose).
Taking maize pollen as an example, the experiment of a series of compounds that may affect the ROS level in the maize pollen was tested.
All reagents are dissolved in 40% sucrose. The relative ROS levels were from 6-7 measurements.

[2] = bright channel, ratio to 40% sucrose control, final concentration as listed per compound in Table 5, 6-7 measurements
[3] = red channel, ratio to 40% sucrose control, final concentration as listed per compound in Table 5, 6-7 measurements

## OO [Hydrogen Peroxide, Hydrogen peroxide]
[1]
  Proportion of fragmentation compared with control group: higher proportion of fragmentation

## 1,2-Octadecyl Phosphatidylinositol Di-4,5-Phosphate [Compound 5]
Maize pollen; [2]
  Relative ROS Level Bright: 1.06 ± 0.06
Maize pollen; [3]
  Relative ROS Level Red: 1.05 ± 0.07

## Cn1cc[nH]c1=S [Compound 12, Methimazole]
[1]
  Proportion of fragmentation compared with control group: higher proportion of fragmentation

## PA_18:1 [Compound 25]
Maize pollen; [2]
  Relative ROS Level Bright: 0.33 ± 0.02
Maize pollen; [3]
  Relative ROS Level Red: 0.34 ± 0.01

## O=[N+]([O-])[O-].O=[N+]([O-])[O-].[Ca+2] [Compound 2, calcium nitrate]
Maize pollen; bright channel, final concentration 1.83 mM, ratio to 40% sucrose control
  Relative ROS Level Bright: 2.57 ± 0.15
Maize pollen; bright channel, final concentration 18.3 mM, ratio to 40% sucrose control
  Relative ROS Level Bright: 3.08 ± 0.12
Maize pollen; red channel, final concentration 1.83 mM, ratio to 40% sucrose control
  Relative ROS Level Red: 2.55 ± 0.21
Maize pollen; red channel, final concentration 18.3 mM, ratio to 40% sucrose control
  Relative ROS Level Red: 2.97 ± 0.12

## O=P(O)(O)O[C@@H]1[C@H](O)[C@H](O)[C@@H](OP(=O)(O)O)[C@H](OP(=O)(O)O)[C@H]1O [Compound 20, IP3(1,4,5)]
Maize pollen; [2]
  Relative ROS Level Bright: 0.60 ± 0.02
Maize pollen; [3]
  Relative ROS Level Red: 0.67 ± 0.03

## C/C1=C\[C@H](C)C[C@H](C)OC(=O)C[C@H](c2ccc(O)cc2)NC(=O)[C@@H](Cc2c(Br)[nH]c3ccccc23)N(C)C(=O)[C@H](C)NC(=O)[C@@H](C)C1 [Compound 6, Jasplakinolide]
Maize pollen; [2]
  Relative ROS Level Bright: 1.79 ± 0.16
Maize pollen; [3]
  Relative ROS Level Red: 1.77 ± 0.16

## PI(3,5)PP_18:1 [Compound 17]
Maize pollen; [2]
  Relative ROS Level Bright: 0.82 ± 0.11
Maize pollen; [3]
  Relative ROS Level Red: 0.88 ± 0.08

## c1ccc2c(c1)[I+]c1ccccc1-2 [Compound 11, Diphenyl iodide chloride]
Maize pollen; [2]
  Relative ROS Level Bright: 1.53 ± 0.14
Maize pollen; [3]
  Relative ROS Level Red: 1.55 ± 0.13

## S=C([S-])OC1CC2CC1C1CCCC21.[K+] (stereo not shown) [Compound 16]
Maize pollen; [2]
  Relative ROS Level Bright: 1.12 ± 0.10
Maize pollen; [3]
  Relative ROS Level Red: 1.14 ± 0.10

## PS_18:1 [Compound 22]
Maize pollen; [2]
  Relative ROS Level Bright: 0.65 ± 0.02
Maize pollen; [3]
  Relative ROS Level Red: 0.63 ± 0.05

## Nc1ncnc2c1ncn2[C@@H]1O[C@@H]2COP(=O)(O)O[C@H]2[C@H]1O [Compound 3, cyclic Adenosine Monophosphate]
Maize pollen; [2]
  Relative ROS Level Bright: 2.04 ± 0.15
Maize pollen; [3]
  Relative ROS Level Red: 1.97 ± 0.10

## Lecithin PC_18:1 [Compound 15]
Maize pollen; [2]
  Relative ROS Level Bright: 1.21 ± 0.18
Maize pollen; [3]
  Relative ROS Level Red: 1.19 ± 0.17

## choline phosphate [Compound 14]
Maize pollen
  Relative ROS Level Bright: 1.27 ± 0.11
  Relative ROS Level Red: 1.28 ± 0.08

## PI(4)P_18:1 [Compound 18]
Maize pollen; [2]
  Relative ROS Level Bright: 0.82 ± 0.10
Maize pollen; [3]
  Relative ROS Level Red: 0.84 ± 0.08

## C/C1=C/C(=O)O[C@@H]2C[C@@H](CC[C@H](C)/C=C\C=C\CC1)O[C@@](O)([C@@H]1CSC(=O)N1)C2 [Compound 9, Latrunculin A]
Maize pollen; [2]
  Relative ROS Level Bright: 1.37 ± 0.00
Maize pollen; [3]
  Relative ROS Level Red: 1.35 ± 0.05

## PE_18:1 [Compound 23]
Maize pollen; [2]
  Relative ROS Level Bright: 0.92 ± 0.08
Maize pollen; [3]
  Relative ROS Level Red: 0.98 ± 0.04

## C/C1=C/C(=O)O[C@@H]2C[C@@H](CC[C@H](C)/C=C\CC1)O[C@@](O)([C@@H]1CSC(=O)N1)C2 [Compound 8, Latrunculin B]
Maize pollen; [2]
  Relative ROS Level Bright: 1.64 ± 0.10
Maize pollen; [3]
  Relative ROS Level Red: 1.66 ± 0.06

## CC(=O)OC(C)(C)/C=C/C(=O)[C@](C)(O)[C@H]1[C@H](O)C[C@@]2(C)[C@@H]3CC=C4[C@@H](C=C(O)C(=O)C4(C)C)[C@]3(C)C(=O)C[C@]12C [Compound 7, Cucurbitacin E]
Maize pollen; [2]
  Relative ROS Level Bright: 1.37 ± 0.02
Maize pollen; [3]
  Relative ROS Level Red: 1.31 ± 0.08

## inositol triphosphate [Compound 4]
Maize pollen; [2]
  Relative ROS Level Bright: 1.37 ± 0.00
Maize pollen; [3]
  Relative ROS Level Red: 1.39 ± 0.01

## O=C(NCCN1CCC(n2c(=O)[nH]c3ccccc32)CC1)c1cc2cc(F)ccc2[nH]1 [Compound 13]
Maize pollen; [2]
  Relative ROS Level Bright: 1.35 ± 0.06
Maize pollen; [3]
  Relative ROS Level Red: 1.34 ± 0.07

## PI(3)P_18:1 [Compound 19]
Maize pollen; [2]
  Relative ROS Level Bright: 0.62 ± 0.06
Maize pollen; [3]
  Relative ROS Level Red: 0.63 ± 0.05

## PI_18:1 [Compound 24]
Maize pollen; [2]
  Relative ROS Level Bright: 0.81 ± 0.05
Maize pollen; [3]
  Relative ROS Level Red: 0.88 ± 0.06

## O=C(O)CC(O)(CC(=O)O)C(=O)O [Compound 21, Citric acid]
Maize pollen; [2]
  Relative ROS Level Bright: 0.74 ± 0.06
Maize pollen; [3]
  Relative ROS Level Red: 0.78 ± 0.02

## [Ca+2].[Cl-].[Cl-] [Compound 1, calcium chloride]
Maize pollen
  Relative ROS Level Bright: 4.03 ± 0.24 and 3.11 ± 0.23
  Relative ROS Level Red: 3.81 ± 0.21 and 3.01 ± 0.23
  effect on relative ROS level (in words): most obvious effect on the increase of ROS level

## PG_18:1 [Compound 26]
Maize pollen; [2]
  Relative ROS Level Bright: 0.32 ± 0.00
Maize pollen; [3]
  Relative ROS Level Red: 0.33 ± 0.00

## Cc1ccc2c(c1)C(=O)C1(O)CCN(c3ccccc3)C1=N2 (stereo not shown) [Compound 10, Blebbistatin]
Maize pollen; [2]
  Relative ROS Level Bright: 1.37 ± 0.14
Maize pollen; [3]
  Relative ROS Level Red: 1.35 ± 0.17
